Laboratory results from publication PMC9866905, “Dehydroeburicoic Acid, a Dual Inhibitor against Oxidative Stress in Alcoholic Liver Disease” (Pharmaceuticals, 2022).

Assays:
[1] = biological target: T1, GSK3β (Homo sapiens, UniProt P49841); assay: ADP-Glo luminescent kinase assay, dose-response; supported by CETSA in LO2 lysate (ΔTm ca. […] °C); type: biochemical
T1 construct: gene GSK3B

[2] = biological target: Keap1 (Homo sapiens, UniProt Q14145); assay: fluorescence polarization competition with labeled Nrf2 (ETGE) peptide, dose-response; supported by CETSA in LO2 lysate (ΔTm ca. […] °C); type: binding; settings: read-out: EC50 (the source's name)
Sequence of Keap1 (Q14145 whole entry): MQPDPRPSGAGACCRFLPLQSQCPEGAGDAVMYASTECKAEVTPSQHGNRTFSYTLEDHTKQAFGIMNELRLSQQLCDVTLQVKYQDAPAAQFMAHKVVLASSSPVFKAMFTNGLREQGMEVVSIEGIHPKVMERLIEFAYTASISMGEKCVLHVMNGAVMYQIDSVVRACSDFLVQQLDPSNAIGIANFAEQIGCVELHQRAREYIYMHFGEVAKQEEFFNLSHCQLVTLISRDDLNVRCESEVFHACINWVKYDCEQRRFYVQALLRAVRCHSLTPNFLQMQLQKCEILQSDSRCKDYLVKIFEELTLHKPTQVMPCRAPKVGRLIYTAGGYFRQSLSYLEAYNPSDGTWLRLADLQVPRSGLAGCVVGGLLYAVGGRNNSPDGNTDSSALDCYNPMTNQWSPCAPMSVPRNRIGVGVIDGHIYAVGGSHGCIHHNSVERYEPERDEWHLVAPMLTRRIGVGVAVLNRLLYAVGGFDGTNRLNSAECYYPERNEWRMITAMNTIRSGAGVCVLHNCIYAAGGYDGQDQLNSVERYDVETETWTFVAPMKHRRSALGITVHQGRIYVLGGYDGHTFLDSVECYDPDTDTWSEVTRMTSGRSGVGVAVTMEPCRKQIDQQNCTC

T1 sequence (P49841 whole entry): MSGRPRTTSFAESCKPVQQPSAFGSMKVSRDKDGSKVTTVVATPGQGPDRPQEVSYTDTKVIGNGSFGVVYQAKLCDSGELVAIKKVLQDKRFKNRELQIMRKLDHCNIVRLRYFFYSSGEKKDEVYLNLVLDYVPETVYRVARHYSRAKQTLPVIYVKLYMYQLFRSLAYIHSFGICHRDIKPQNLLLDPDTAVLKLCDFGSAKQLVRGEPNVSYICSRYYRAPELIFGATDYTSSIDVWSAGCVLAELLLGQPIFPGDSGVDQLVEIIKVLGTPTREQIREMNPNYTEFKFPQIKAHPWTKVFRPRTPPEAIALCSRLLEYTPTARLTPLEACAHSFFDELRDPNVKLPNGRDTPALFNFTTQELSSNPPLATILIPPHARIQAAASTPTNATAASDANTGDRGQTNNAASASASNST

C=C(CC[C@@H](C(=O)O)[C@H]1CC[C@@]2(C)C3=CC[C@H]4C(C)(C)[C@@H](O)CC[C@]4(C)C3=CC[C@]12C)C(C)C [compound 1, Dehydroeburicoic acid]
EC50 [1]: 8 ± 0.7 µM | IC50 [2]: 14.1 ± 0.1 µM
